Values quoted from earlier work as cited in patent publication US20080167325A1, “VALACYCLOVIR COMPOSITIONS” (priority 2006, published 2008).

Key:
[1] = first-pass hepatic metabolism through enzymatic hydrolysis
[2] = compared with acyclovir

## CC(C)[C@H](N)C(=O)OCCOCn1cnc2c(=O)[nH]c(N)nc21 [Valacyclovir, L-valine, 2-[(2-amino-1,6-dihydro-6-oxo-9H-purin-9-yl)methoxy]ethyl ester]
Cytochrome P450 enzymes
  metabolized by cytochrome P450 enzymes: Neither valacyclovir nor acyclovir is metabolized
[1]
  converted to the active compound, acyclovir, and L-valine: ~99%
[2]
  bioavailability: much improved bioavailability
